Read-outs that look alike come from different tables or passages of the source.
Assays:
[1] = test system: normal primary cultures of rat brain astrocytes; test: Dose response (percent survival) in primary cultures of astrocytes; format: cell-based; conditions: 4 days of treatment
Text: (§1) 6,7-Dimethoxy-1-[4-(4-methoxypyridin-3-yl)benzyl]-1,2,3,4-tetrahydroisoquinolinehydrochloride (EDL-291) was synthesized as described herein in the laboratory of Dr. Duane D. Miller at The University of Tennessee Health Science Center. Briefly, the primary cultures of astrocytes and cultures of C6 glioma cell lines were handled identically with respect to treatment concentrations and manipulations of cells for the screening assays. The cells were trypsinized and transferred to 96-well plates at a cell density of 10^3 cells/mm^2 in the wells. The cells were grown overnight in 100 μL of 10% FCS BME in a 37° C. incubator containing a humid, 5% CO2 atmosphere.
(§2) EDL291 was dissolved completely to make a […] stock solution and diluted to produce a series of concentrations. A 20 μL aliquot of these initial solutions was added to 180 μl of 2% FCS BME to produce the test concentration. The vehicle solution was tested as a control. […] Immediately before treatment, the 10% FCS BME was removed from the cells and replaced with the 180 μl of the treatment medium. The cultured cells (normal primary cultures of rat brain astrocytes or C6 glioma purchased from ATCC) were incubated with test compound for 4 days. The cells were fixed with 4% paraformaldehyde, stained with 0.1% Cresylecth violet stain, and quantitated. The screening data was collected as four wells for each dose per compound (screening) or concentration (dose response curve). Also, the average growth of 8 wells with no treatment was used as a negative control for each plate (100% growth). The cells for dose response curves were grown in the same media and were handled in a similar manner as in the screening assays.
(§3) The cytotoxic character of each compound was reported as the percent survival, calculated as the average A560 for treated cells divided by A560 of untreated (100% control) cells, and expressed as a percentage. Values less than 100% indicate a cytostatic or cytotoxic effect. Dose response curves and EC50 values were attained via plots of percent survival vs. concentration.

C6 glioma [2] = test: Dose response (percent survival) in C6 glioma cell cultures; format: cell-based, rat
Text: as §1, §2, §3

C6 glioma [3] = test: C6 glioma transplanted into rat brain, tumor size determination; format: in vivo, Sprague-Dawley rats
Description: For studies in which C6 glioma are transplanted into the brain, a C6 cell line produced in the inventors' laboratory that caries the β-galactosidase marker was used. The cell line was transfected with the pCMVβ expression vector (Clontech, Palo Alto, Calif.) and stable transfectants were selected using G418 (GibcoBRL). The glioma cells were plated at a density of 5×10^3 cells/cm^2 into T-75 culture flasks. The cells were allowed to grow to confluence in BME with 10% fetal calf serum. On the day before transplantation, the cultures were rinsed with Hank's Balanced Salt Solution placed in BME with 10% rat serum (Equitech-Bio Inc., Kerrville, Tex.).
A total of 18 male Sprague-Dawley rats (250-350 g) were deeply anesthetized with (13 mg/kg, Rompom and 87 mg/kg, Ketalar) for the surgery. The rats were monitored during the surgery to insure that they remained deeply anesthetized and unresponsive to pain. […]
The tumor was allowed to grow for three days prior to treatment. […] During the treatment period the animal were monitored daily. […]
The size of tumors in each animal was measured. […] The digital images were analyzed to define the volume of the tumor using the program NIH image. […] The codes were released and the data compiled and analyzed using a Student t test. […]

[4] = Acute toxicity observation in treated glioma-bearing rats; format: in vivo, Sprague-Dawley rats; conditions: 40 mg/kg
Description: The tumor was allowed to grow for three days prior to treatment. EDL-291 (40 mg/kg) was delivered by IP delivery twice a day for the next seven days. Animals were placed into one of two treatment groups: 9 rats received carrier solution only (Hanks Balanced Salt Solution, HBSS plus 10% DMSO) and 9 rats received EDL-291. During the treatment period the animal were monitored daily. After a treating the animals for 7 days, the rats were deeply anesthetized with 26 mg/kg Rompium and 174 mg/kg Ketalar and perfused through the heart with saline followed by 4% paraformaldehyde in phosphate buffer (pH 7.4). Brains were removed from the skull, post-fixed for 24 hours and then placed in a 30% sucrose solution. The brains were sectioned at […] with a freezing microtome. One 1-in-5 series of sections was mounted on glass slides and stained by the Nissl method.
Approximately three days after tumor cell implantation, animals began receiving intraperitoneal administration of EDL-291 (40 mg/kg) twice daily for the next seven days. Animals were placed into one of two treatment groups: 9 rats received vehicle only (10% DMSO in Hanks Balanced Salt Solution, HBSS) and 9 rats received EDL-291. Animals were monitored daily during the treatment period. […]

Question: For COc1cc2c(cc1OC)C(Cc1ccc(-c3cnccc3OC)cc1)NCC2.Cl (stereo not shown) [EDL-291, 6,7-Dimethoxy-1-[4-(4-methoxypyridin-3-yl)benzyl]-1,2,3,4-tetrahydroisoquinolinehydrochloride], which EC50 ([1]; read-out: EC50 μM Astrocyte) is on record?
Answer: Its EC50 is 26 µM.

Question: And the EC50 ([1]; Rattus norvegicus, Astrocyte, 96 h)?
Answer: Its EC50 is 22.8 µM.

Question: And the “fold difference in effect concentration, C6 glioma relative to normal brain astrocytes” value (C6 glioma [2]; EC50 astrocytes vs EC50 C6 glioma)?
Answer: Its value is 36 fold.

Question: And the EC50 (C6 glioma [2]; Rattus norvegicus, C6 glioma, 96 h, C6 glioma cells, 4 days of treatment, percent survival)?
Answer: Its EC50 is 0.6 µM.

Question: And the “tumors smaller on average than in control rats” value (C6 glioma [3]; 40 mg/Kg BID IP for 7 days, n=9, p=0.02 (student t test))?
Answer: Its value is 32%.

Question: And the “tumor size compared to vehicle control animals (in words)” value (C6 glioma [3]; 40 mg/kg IP twice daily for 7 days)?
Answer: The value was “statistically significant reduction in tumor size”.

Question: What about the acute toxicity [4] of the same compound?
Answer: Its acute toxicity is “no evidence of acute toxicity”.
